# Values quoted from earlier work as cited in patent US7947714B2, “Piperidine glycine transporter inhibitors” (Merck, Sharp & Dohme Corp., priority 2005, dated 2011).
# Legend:
# NMDA receptor = settings: rat; blockade of GlyT1
# [1] = mice
# [2] = high doses, oral, add-on to standard neuroleptic therapy
# [3] = patients suffering from schizophrenia, poorly responsive to antipsychotic drugs
smiles,measurement,setting,value
"CN(CCC(Oc1ccc(-c2ccccc2)cc1)c1ccc(F)cc1)CC(=O)O (stereo not shown) [NFPS, (N-[3-(4′-fluorophenyl)-3-(4′-phenylphenoxy)propyl])sarcosine]",effect on NMDA receptor activity and NMDA receptor-dependent long-term potentiation,NMDA receptor,potentiates NMDA receptor activity and NMDA receptor-dependent long-term potentiation
same,effect on pre-pulse inhibition (measure of sensory gating),[1],enhance pre-pulse inhibition
NCC(=O)O [glycine],effect on symptoms of schizophrenia,[2],improvement of the symptoms
CNCC(=O)O [sarcosine],"effect on positive, negative and cognitive symptoms of schizophrenia",[3],"beneficial effect was observed on positive, negative and cognitive symptoms"
